{"source": "patent US20190021380A1", "about": "(priority 2014, published 2019)", "key": {"[1]": {"biological_target": "T1R1/T1R3 receptor (Felis catus, UniProt E3UMS2)", "test": "cell-based", "assay_type": "cell-based", "conditions": "for Max resp % of Ala +IMP (0.2 mM): relative to Ala; for Max resp ΔF/F +Alanine (20 mM) / Thres (mM) +Alanine (20 mM) / Max resp % of IMP +Alanine (20 mM): in the presence of 20 mM alanine; for Max resp % of IMP +Alanine (20 mM): relative to IMP", "from_the_text": "(§1) HEK293 cells that stably express T1R3 and inducibly express T1R1 were exposed to transmembrane compounds alone or in combination with one or more amino acids and/or one or more nucleotides to activate the umami receptor. Activation of the T1R1/T1R3 receptor was detected by a change in intracellular calcium levels using a calcium sensitive fluorescent dye. Cells that express T1R3 but not T1R1 were used as a control. A FLIPR® Tetra or a FlexStation® 3 was used for data capture.\nIn each experiment, serial dilutions of up to 10 mM of the transmembrane compound were added to the T1R1/T1R3-expressing cells."}, "[2]": {"biological_target": "cat T1R1/T1R3 receptor (Felis catus, UniProt E3UMS2)", "test": "cell-based", "from_the_text": "as §1, with “nucleotide derivatives” for “transmembrane compounds”, “dye and/or a luminescent reporter system.” for “dye.”"}, "[3]": {"conditions": "EC50 (mM), + Alanine (20 mM), Table 15"}}, "note": "pEC50: −log10 of the molar value. Counter-ions that a name gives are not always drawn. Like-named read-outs stand apart in the source and are kept apart here.", "data": [{"compound": "CCCC(CCC)C(=O)Nc1ccc2c(c1)OCO2", "note": "[N-(benzo[d][1,3]dioxol-5-yl)-2-propylpentanamide]", "values": [{"measurement": "activation of T1R1/T1R3 by the compound alone", "setting": "[1]; alone, in words", "result": "agonist of T1R1/T1R3 alone"}, {"measurement": "Max resp ΔF/F +IMP (0.2 mM)", "setting": "[1]; in the presence of 0.2 mM IMP", "result": 0.908}, {"measurement": "Thres (mM) +IMP (0.2 mM)", "setting": "[1]; in the presence of 0.2 mM IMP", "result": 0.0675, "unit": "mM"}, {"measurement": "Max resp % of Ala +IMP (0.2 mM)", "setting": "[1]; in the presence of 0.2 mM IMP", "result": 108.0, "unit": "%"}]}, {"compound": "CNc1ncnc2c1ncn2[C@H]1C[C@H](OP(=O)(O)O)[C@@H](COP(=O)(O)O)O1", "note": "[MRS 2179 ammonium salt hydrate, 2′-Deoxy-N^6-methyl adenosine 3′,5′-diphosphate diammonium salt]", "values": [{"measurement": "Activity", "setting": "[2]", "result": "active"}, {"measurement": "Thres", "setting": "[2]", "result": 0.013, "unit": "mM"}]}, {"compound": "2′-, 3′-O—(N′-methylanthraniloyl)guanosine-5′-O-monophosphate", "values": [{"measurement": "function as activators of T1R1/T1R3", "setting": "[2]; in the presence of alanine, in words", "result": "activators of T1R1/T1R3"}]}, {"compound": "O=c1ccn([C@H]2O[C@@H](COP(=O)(O)O)[C@H](O)[C@@H]2O)c(=O)[nH]1", "note": "(stereo in doubt) [Uridine 5′-monophosphate disodium salt]", "values": [{"measurement": "EC50", "setting": "[2]; EC50-with Ala (mM)", "result": "> 30", "unit": "mM"}]}, {"compound": "Nc1nc2c(ncn2[C@H]2C[C@H](O)[C@@H](COP(O)(O)=S)O2)c(=O)[nH]1", "note": "[2′-Deoxyguanosine-5′-O-monophosphorothioate,sodiumsalt]", "values": [{"measurement": "Thres", "setting": "[2]", "result": 0.0025, "unit": "mM"}, {"measurement": "Max resp % of IMP", "setting": "[2]; hek293 cells", "result": "86.7 % of IMP"}]}, {"compound": "O=c1ccn(C2OC(COP(=O)(O)N3CCOCC3)C(O)C2O)c(=O)[nH]1", "note": "(stereo not drawn)", "values": [{"measurement": "EC50", "setting": "[2]; [3]", "result": "> 3", "unit": "mM"}]}, {"compound": "Nc1ncnc2c1ncn2[C@@H]1O[C@H](COP(=O)(O)O)[C@@H](O)[C@H]1O", "note": "[Adenosine 5′-monophosphate disodium salt, reference compound]", "values": [{"measurement": "Thres", "setting": "[2]", "result": 0.003, "unit": "mM"}]}, {"compound": "Nc1nc2c(ncn2[C@H]2C[C@H](O)[C@@H](COP(O)(O)=S)O2)c(=O)[nH]1", "note": "[2′-Deoxyguanosine-5′-O-monophosphorothioate (5′-dGMPS)]", "values": [{"measurement": "Thres", "setting": "[2]", "result": 0.005, "unit": "mM"}]}, {"compound": "NC(=O)c1ncn(C2OC(COP(=O)(O)O)C(O)C2O)n1", "note": "(stereo not drawn) [Ribavirin 5′-Monophosphate]", "values": [{"measurement": "Thres", "setting": "[2]", "result": 0.175, "unit": "mM"}]}, {"compound": "CNc1ncnc2c1ncn2[C@@H]1O[C@H](COP(=O)(O)O)[C@@H](O)[C@H]1O", "note": "[N6-Methyladenosine 5′-monophosphate]", "values": [{"measurement": "Thres", "setting": "[2]", "result": 0.020, "unit": "mM"}]}, {"compound": "CSc1ccc(-c2nnn(Cc3ccccn3)n2)cc1", "note": "[2-((5-(4-(methylthio)phenyl)-2H-tetrazol-2-yl)methyl)pyridine]", "values": [{"measurement": "Max resp ΔF/F +IMP (0.2 mM)", "setting": "[1]; in the presence of 0.2 mM IMP", "result": 0.678}, {"measurement": "Thres (mM) +IMP (0.2 mM)", "setting": "[1]; in the presence of 0.2 mM IMP", "result": 0.1575, "unit": "mM"}, {"measurement": "Max resp % of Ala +IMP (0.2 mM)", "setting": "[1]; in the presence of 0.2 mM IMP", "result": 80.7, "unit": "%"}]}, {"compound": "Nc1nc2c(ncn2[C@@H]2O[C@H](COP(=O)(O)O)[C@@H](O)[C@H]2O)c(=O)[nH]1", "note": "[GMP, guanosine monophosphate, reference compound]", "values": [{"measurement": "pEC50", "setting": "[2]; in the presence of 20 mM alanine, read-out: EC50-with Ala", "result": 4.70}]}, {"compound": "O=c1[nH]cnc2c1ncn2C1CC(O)C(COP(O)(O)=S)O1", "note": "(stereo not drawn) [2′-Deoxyinosine-5′-O-monophosphorothioate]", "values": [{"measurement": "Thres", "setting": "[2]", "result": 0.025, "unit": "mM"}]}, {"compound": "Nc1ncnc2c1nc(Cl)n2[C@@H]1O[C@H](COP(=O)(O)O)[C@@H](O)[C@H]1O", "note": "[8-Chloroadenosine-5′-O-monophosphate]", "values": [{"measurement": "Thres", "setting": "[2]", "result": 0.2, "unit": "mM"}, {"measurement": "EC50", "setting": "[2]; [3]", "result": 0.8, "unit": "mM"}, {"measurement": "Max resp % of IMP", "setting": "[2]; hek293 cells", "result": "63.6 % of IMP"}, {"measurement": "Max. resp. % of IMP", "setting": "[2]; hek293 cells", "result": "63.6 % of IMP"}]}, {"compound": "O=P(O)(O)OCC1OC(n2cnc3c(Nc4ccccc4)ncnc32)C(O)C1O", "note": "(stereo not drawn)", "values": [{"measurement": "EC50", "setting": "[2]; EC50-with Ala (mM), in the presence of 20 mM alanine", "result": "> 1", "unit": "mM"}]}, {"compound": "CCC(CC)NC(=O)c1ccc2c(c1)OCCO2", "note": "[N-(pentan-3-yl)-2,3-dihydrobenzo[b][1,4]dioxine-6-carboxamide]", "values": [{"measurement": "Max resp ΔF/F +IMP (0.2 mM)", "setting": "[1]; in the presence of 0.2 mM IMP", "result": 0.8725}, {"measurement": "Thres (mM) +IMP (0.2 mM)", "setting": "[1]; in the presence of 0.2 mM IMP", "result": 0.075, "unit": "mM"}, {"measurement": "Max resp % of Ala +IMP (0.2 mM)", "setting": "[1]; in the presence of 0.2 mM IMP", "result": 70.9, "unit": "%"}, {"measurement": "Max resp ΔF/F +Alanine (20 mM)", "setting": "[1]", "result": 0.3125}, {"measurement": "Thres (mM) +Alanine (20 mM)", "setting": "[1]", "result": 0.3, "unit": "mM"}, {"measurement": "Max resp % of IMP +Alanine (20 mM)", "setting": "[1]", "result": 25.2, "unit": "%"}]}, {"compound": "O=c1ccn([C@H]2C[C@H](O)[C@@H](COP(O)(O)=S)O2)c(=O)[nH]1", "note": "[2′-Deoxyuridine-5′-O-monophosphosphorothioate]", "values": [{"measurement": "EC50", "setting": "[2]; EC50 (mM)", "result": "> 30", "unit": "mM"}, {"measurement": "EC50", "setting": "[2]; EC50-with Ala (mM)", "result": "> 30", "unit": "mM"}]}, {"compound": "O=C(CN1C(=O)C(=O)N(Cc2ccccc2)C1=O)c1ccccc1", "note": "[1-benzyl-3-(2-oxo-2-phenylethyl)imidazolidine-2,4,5-trione]", "values": [{"measurement": "Max resp ΔF/F +IMP (0.2 mM)", "setting": "[1]; in the presence of 0.2 mM IMP", "result": 1.140}, {"measurement": "Thres (mM) +IMP (0.2 mM)", "setting": "[1]; in the presence of 0.2 mM IMP", "result": 0.08, "unit": "mM"}, {"measurement": "Max resp % of Ala +IMP (0.2 mM)", "setting": "[1]; in the presence of 0.2 mM IMP", "result": 135.7, "unit": "%"}, {"measurement": "Max resp ΔF/F +Alanine (20 mM)", "setting": "[1]", "result": 1.3}, {"measurement": "Thres (mM) +Alanine (20 mM)", "setting": "[1]", "result": 1, "unit": "mM"}, {"measurement": "Max resp % of IMP +Alanine (20 mM)", "setting": "[1]", "result": 127.6, "unit": "%"}]}, {"compound": "CCC(CC)NC(=O)/C=C/c1ccc(OC)cc1", "note": "[(E)-3-(4-methoxyphenyl)-N-(pentan-3-yl)acrylamide]", "values": [{"measurement": "Max resp ΔF/F +IMP (0.2 mM)", "setting": "[1]; in the presence of 0.2 mM IMP", "result": 1.443}, {"measurement": "Thres (mM) +IMP (0.2 mM)", "setting": "[1]; in the presence of 0.2 mM IMP", "result": 0.0375, "unit": "mM"}, {"measurement": "Max resp % of Ala +IMP (0.2 mM)", "setting": "[1]; in the presence of 0.2 mM IMP", "result": 171.7, "unit": "%"}, {"measurement": "Max resp ΔF/F +Alanine (20 mM)", "setting": "[1]", "result": 0.7}, {"measurement": "Thres (mM) +Alanine (20 mM)", "setting": "[1]", "result": 0.148, "unit": "mM"}, {"measurement": "Max resp % of IMP +Alanine (20 mM)", "setting": "[1]", "result": 64.1, "unit": "%"}]}, {"compound": "CCOC(=O)C(NC(=O)c1ccc2c(c1)OCO2)C(C)C", "note": "(stereo not drawn) [ethyl 2-(benzo[d][1,3]dioxole-5-carboxamido)-3-methylbutanoate]", "values": [{"measurement": "pEC50", "setting": "[1]", "result": "< 2.00"}, {"measurement": "EC50", "setting": "[1]; EC50 (mM) +IMP (0.2 mM), in the presence of 0.2 mM IMP", "result": "> 3", "unit": "mM"}, {"measurement": "EC50", "setting": "[1]; compound alone in buffer, read-out: EC50 (mM) +buffer (alone)", "result": "> 10", "unit": "mM"}, {"measurement": "Max resp ΔF/F +IMP (0.2 mM)", "setting": "[1]; in the presence of 0.2 mM IMP", "result": 0.65}, {"measurement": "Thres (mM) +IMP (0.2 mM)", "setting": "[1]; in the presence of 0.2 mM IMP", "result": 1, "unit": "mM"}, {"measurement": "Max resp % of Ala +IMP (0.2 mM)", "setting": "[1]; in the presence of 0.2 mM IMP", "result": 52.8, "unit": "%"}, {"measurement": "Max resp ΔF/F +Alanine (20 mM)", "setting": "[1]", "result": 0.3175}, {"measurement": "Thres (mM) +Alanine (20 mM)", "setting": "[1]", "result": 10, "unit": "mM"}, {"measurement": "Max resp % of IMP +Alanine (20 mM)", "setting": "[1]", "result": 25.6, "unit": "%"}]}]}
